Assay results: patent publication US12590061B2, “Crystalline form of acetylcholinesterase inhibitor and preparation method therefor and application thereof” (SHANGHAI INSTITUTE OF MATERIA MEDICA, CHINESE ACADEMY OF …, priority 2019, dated 2026)
Converted amounts (≈) assume the structure as drawn. Like-named read-outs stand apart in the source and are kept apart here.

Key:
Assay type in all cases: physicochemical
[1] = Dynamic Vapor Sorption (DVS) / hygroscopicity test; details: for Humidity change (DVS): within the conventional storage humidity range
Protocol: Dynamic Vapor Sorption (DVS) test/Hygroscopicity test is a rapid measurement of the increase and loss of sample moisture caused by a flowing carrier gas with a set relative humidity (RH). The hygroscopicity of the sample is then determined by measuring the increase/decrease in the mass of the material to detect the adsorption/desorption of water vapor on a high-sensitivity, high-stability digital microbalance in a self-suspended state.
In the present invention, the test parameters of DVS are as follows: instrument model: SMS DVS Intrinsic; measurement temperature 25° C., 0-95% RH.

[2] = Solubility experiment of each crystalline form in water
[3] = Crystal transformation experiment (suspension stirring, XRPD)
Protocol: Form A and Form B were mixed in equal amounts, and mixed in EA/Hep(1:1) to give a suspension, and XRPD test is performed after stirring at normal temperature (25° C.) for three days.

| SMILES | Humidity change (DVS) [1] | Solubility ([2]; Pure water) | Solubility ([2]; pH 2.01) | Solubility ([2]; pH 4.59) | Solubility ([2]; pH 6.74) | Stability order of the three crystalline forms [3] | Solubility compared with other form ([2]; in water, Form C becomes Form B after being transformed) | Crystal form transformation ([3]; metastable crystalline) | Change in hygroscopicity (weight change, DVS) ([1]; 0-95% relative humidity, 25° C.) | Solubility ([2]; water, pH 2.01, aqueous buffer, thermodynamic from solid, pH 2.01, read-out: Solubility) | Solubility ([2]; water, pH 4.59, aqueous buffer, thermodynamic from solid, pH 4.59, read-out: Solubility) | Solubility ([2]; water, pH 6.74, aqueous buffer, thermodynamic from solid, pH 6.74, read-out: Solubility) |
| --- | --- | --- | --- | --- | --- | --- | --- | --- | --- | --- | --- | --- |
| COc1cc2c(cc1OC)C(=O)C(CC1(F)CCN(Cc3ccccc3F)CC1)C2 (single isomer, unassigned) [Form B] | 1% | 8.9 µg/mL (≈ 0.0214 mM) | 20500 µg/mL (≈ 49.3 mM) | 2790 µg/mL (≈ 6.72 mM) | 180 µg/mL (≈ 0.433 mM) | Form A>Form B>Form C |  |  |  |  |  |  |
| COc1cc2c(cc1OC)C(=O)C(CC1(F)CCN(Cc3ccccc3F)CC1)C2 (single isomer, unassigned) [Form C] | 1.2% |  |  |  |  | Form A>Form B>Form C | the same as Form B | transfers to Form B |  |  |  |  |
| COc1cc2c(cc1OC)C(=O)C(CC1(F)CCN(Cc3ccccc3F)CC1)C2 (single isomer, unassigned) [Form A] |  | 140 µg/mL (≈ 0.337 mM) |  |  |  | Form A>Form B>Form C |  |  | about 0.6% | 12400 µg/mL (≈ 29.7 mM) | 1860 µg/mL (≈ 4.48 mM) | 140 µg/mL (≈ 0.337 mM) |
